The subject of data set [1] is GAL1-induced expression (GAL controlled YFP). Briefly: GAL1-induced expression measured by flow cytometry of GAL controlled YFP. Format: cell-based, Saccharomyces cerevisiae. The settings on record: flow cytometry of GAL controlled YFP (data not shown).
Data set [2] has as its system strain expressing toxic levels of Aβ (ssAβ 1-42 strain). Briefly: Clioquinol rescue: growth in liquid culture of ssAβ 1-42 strain and YFP control strain (Bioscreen, OD600). The class given is cell-based, Saccharomyces cerevisiae. The note with it: FIG. 4. The protocol:
To further test the effect of clioquinol, a control strain and a strain expressing toxic levels of Aβ were grown in liquid culture with various concentrations of the compound.
To generate ssAβ1-42 screening strains the ssAβ1-42 construct was moved to a pAG Gal p305 expression vector (S. Alberti, A. D. Gitler, S. Lindquist, A suite of Gateway cloning vectors for highthroughput genetic analysis in Saccharomyces cerevisiae. Yeast 24, 913 (2007)). The plasmid was digested using BstX1, gel purified and transformed into W303. The transformation was carried out in duplicate and the level of growth of 16 transformants each was tested on synthetic deficient media lacking leucine with galactose. Two strains from the independent transformations where chosen as screening strains based on their robust yet intermediate toxicity that would allow for the identification of both suppressors and enhancers. […] The control strain for wild type yeast growth is carrying a Gal inducible YFP integrated in the same fashion as the ssAβ1-42 constructs. For spotting assays strains were grown over night at 30° C. in 3 ml SD media lacking the relevant amino acids and containing glucose. Cell concentrations (OD600) were adjusted in a 96-well plate to that of the strain with the lowest concentration. Cells were then 5 fold serially diluted and spotted on SD media containing glucose (Uninduced) and galactose (Induced). Plates were incubated at 30° C. for 2 (glucose) or 3 days (galactose).
Yeast strains were grown overnight to saturation in synthetic medium with glucose as the carbon source after inoculation from a colony. These cultures were used to inoculate raffinose cultures. Raffinose cultures in log phase growth (OD600 0.7-0.9) were diluted to an OD600 of 0.03 in synthetic medium with galactose as the carbon source, and […] of the cell suspension was distributed to each well of a Bioscreen plate. […] of clioquinol (Sigma C8133, ˜95%), dissolved in DMSO at 100 times the final intended concentration, was added to each well. […]

“Also recorded” adds a separate entry of the source.

Turning to `Oc1c(I)cc(Cl)c2cccnc12` [clioquinol], in data set [1], the “effect on GAL1-induced expression” value is reported as “did not diminish GAL1-induced expression”. Further, the “toxicity at higher concentrations” value in data set [2] (higher concentrations, ssAβ 1-42 strain and YFP control strain) is “toxic to both strains”. Moreover, the “growth at the optimal concentration compared with control strain” value in data set [2] (optimal concentration, control strain expressing YFP) is “nearly as robust as that of the control strain; also recorded: restored growth levels to those of a control strain expressing YFP”. Further, the “growth of the Aβ expressing strain (dose dependence of rescue)” value in data set [2] (ssAβ 1-42 strain in inducing (galactose) media, various concentrations) is recorded as “improved the growth of the Aβ expressing strain in a dose dependent manner; also recorded: rescued growth levels in a dose dependent manner”.
